The subject of data set [1] is L. donovani promastigotes. The data set can be described thus: In vitro killing of L. donovani promastigotes. The format is cell-based, Leishmania donovani (strain LV 82). Particulars: Leishmania donovani, 72 h, read-out: L. donovani promastigotes IC50.
Data set [2] can be described thus: In vitro cytotoxicity, sulforhodamine B. The format is cell-based. Particulars: human.
Data set [3] can be described thus: Stability in solution. Type of data set: physicochemical. Particulars: room temperature.
For data set [4] the following is noted: cited from earlier work.
The test system of data set [5] is L. donovani promastigotes. Particulars: isolated from other plant species; cited from earlier work.
In data set [6] the test system is human farnesyl diphosphate synthase (FPPS). Particulars: cited from earlier work.
Data set [7] has as its system trypanosomal farnesyl diphosphate synthase (FPPS). Particulars: cited from earlier work.
Setting [8] is: HT-29 colorectal carcinoma cells.

≈ marks a conversion by molar mass, not a printed value.

The values below come from PMC4831050 (Journal of natural products, 2016).

As to `CC(C)c1cc2c(c(O)c1O)[C@@]1(C)CCCC(C)(C)C1=C(O)C2=O` [Compound 16, 14-deoxycoleon U], the IC50 in data set [1] was over 20 µg/mL. The IC50 at 72 h in data set [2] came out at 4.4 µg/mL (≈ 13.3 µM).
As to `COCC(=O)[C@H]1C(C)(C)CCC[C@]1(C)C1=C(O)C(=O)C(C(C)C)=CC1=O` [Compound 2, (1′S,2′S)-6-hydroxy-4-isopropyl-2′-(2-methoxyacetyl)-1′,3′,3′-trimethyl-[1,1′-bi(cyclohexane)]-3,6-diene-2,5-dione], the IC50 in data set [1] stood at 2.5 µg/mL (≈ 6.9 µM). In addition, in data set [2] (setting [8]), the IC50 at 72 h turned out to be 1.6 µg/mL (≈ 4.41 µM).
With `Cc1ccc2c3c1CCCC(C)(C)C3C(=O)C(C(C)C)=C2` (racemic) [Compound 4, (±)-11-dehydroxymicrostegiol], in data set [3], the stability in solution entry is on record as “stable in solution at room temperature”.
Regarding `CC(C)c1cc2c(cc1O)[C@@]1(C)CCCC(C)(C)[C@@H]1[C@@H](O)C2=O` [Compound 14, 6α-hydroxysugiol], the 50% inhibitory concentration (IC50) in data set [1] was 7.8 µg/mL (≈ 24.6 µM). The same compound had a 50% inhibitory concentration (IC50) at 72 h in data set [2] (setting [8]) of 11.4 µg/mL (≈ 36 µM).
Take `CC(C)c1cc2c(cc1O)[C@@]1(C)CCCC(C)(C)[C@@H]1CC2` [Compound 12, ferruginol]: the 50% inhibitory concentration (IC50) in data set [1] came out at 13.1 µg/mL (≈ 45.7 µM). In addition, the IC50 at 72 h in data set [2] (setting [8]) was found to be 11.3 µg/mL (≈ 39.4 µM). The “reported antioxidant and gastroprotective activity” value in data set [4] is “bioavailable antioxidant and gastroprotective agent”.
On to `CC(C)C1=CC2=CC(=O)[C@H]3C(C)(C)CCC[C@]3(C)C2=C(O)C1=O` [Compound 10, taxodione], for which the half-maximal inhibitory concentration (IC50) in data set [1] worked out at 0.5 µg/mL (≈ 1.59 µM). This compound also returned an IC50 at 72 h in data set [2] (setting [8]) of 0.8 µg/mL (≈ 2.54 µM). Moreover, in data set [5], the “antileishmanial activity against L. donovani promastigotes in vitro” value is reported as “potent antileishmanial agent”. In data set [6], the “inhibition of human farnesyl diphosphate synthase (FPPS)” value is given as “inhibitor”. Also, the “inhibition of trypanosomal farnesyl diphosphate synthase (FPPS)” value in data set [7] is reported as “inhibitor”.
